Experimental findings from US9765063B2, “Amido compounds as RORγt modulators and uses thereof” (New York University, priority 2011, dated 2017) are described below.

Data set [1] concerns the target T1, RORγt (Mus musculus, UniProt P51450).
T1 construct: expressed in transfected cells; the other entry of the earlier key: GAL4 (P04386, Regulatory protein GAL4)
In words: RORγt S2 cell reporter assay (Gal4-RORγt fusion, UAS-luciferase). It is filed as cell-based. The following applies: for pIC50: Drosophila S2 cells, luciferase reporter, read-out: IC50; for Emax: % of the maximal response of control inhibitor (Digoxin), set at 100%, read-out: Efficacy (%). The source says:
Methods: The Drosophila S2 cell line was originally purchased from Invitrogen and was maintained in Schneider's medium supplemented with 10% heat-inactivated bovine fetal calf serum and antibiotics (Invitrogen). […] The resulting chimeric gene was subcloned into the copper inducible pMT/V5-His A vector (available from Invitrogen).
Renilla luciferase construct under the polIII promoter was obtained from Dr. Dasgupta's laboratory (NYU medical center). In order to generate stable cell lines, cells were co-transfected with pMT-G4DBD-RORγt, pMT-G4DBD-RORα, pMT-G4DBD-DHR3, or pMT-G4DBDVP16 and pHygro plasmids (Invitrogen) and screened for resistant colonies in the presence of hygromycin (0.3 mg/mL). […] Using similar methods, stable clones with genomic integration of the luciferase reporters and other reporters were generated such as pMT-RORα_luc, pMT-DHR3_luc, or pMT-VP16_luc.
Methods: 600 G4DBD-RORγ/γt-luc reporter (#25) or G4DBD-VP16-luc reporter cells were distributed into each well of 1,536-well white bottom plates in 4 μl S2 cell culture volume containing hygromicin (300 μg/ml) and puromycin (2 μg/ml). […] After one-hour incubation, 1 of culture medium solution containing copper sulfate (to final 0.7 mM) and 10 μM RORγ/γt antagonists were added to each well. After 20-hour incubation at ambient temperature, 1.5 μl firefly luciferase detection mix was added and the luciferase activities were measured in 10 min. ViewLux luminometers were used for measuring luciferase signal.
A cell-based reporter assay was used to detect RORγt-mediated activity. This assay, called RORγt employed Drosophila Schneider cells that were stably transfected with two vectors: a gene expressing a fusion of the Gal4 DNA binding domain and RORγt transactivation domain under the control of the metallothionine promoter and a Photinus luciferase reporter regulated by the Gal4 binding site enhancer, UAS. […] Cells (600/well) were dispensed into white solid 1536-well plates (Greiner) using a solenoid-based dispenser. Following transfer of […] compound or DMSO vehicle by a pin tool, the plates were incubated 1 hr at ambient temperature, and 1 uL/well copper sulfate (700 uM final concentration) was added. The plates were centrifuged 15 s at 1000 RPM and incubated 20 hr at ambient temperature. After addition of 1.5 uL Photinus luciferase detection reagent, the plates were incubated 10 min at ambient temperature and then read by a ViewLux (Perkin Elmer) to detect luminescence. […] Efficacy is expressed as % of the maximal response of control inhibitor (Digoxin), set at 100%.
(In a reporter assay the amount or activity of a reporter protein is the signal.)

Data set [2] can be described thus: Half-life in Human Liver Microsomes (HLM). Particulars: for % Remaining @ 60 min / half-life at 1 μM / microsomal CLint at 1 μM: 1 μM compound, 0.78 mg/mL HLM, 37° C.; for half-life at 1 μM / microsomal CLint at 1 μM: human, human liver microsomes, pH 7.4; for half-life at 1 μM: Half-life=ln 2/k; for microsomal CLint at 1 μM: read-out: CLint (uM/Min/mg proteins). Format: in vitro ADME. On the procedure:
Test compounds (1 μM) are incubated with 3.3 mM MgCl2 and 0.78 mg/mL HLM (HL101) in 100 mM potassium phosphate buffer (pH 7.4) at 37° C. on the 96-deep well plate. The reaction mixture is split into two groups, a non-P450 and a P450 group. NADPH is only added to the reaction mixture of the P450 group. An aliquot of samples of the P450 group is collected at 0, 10, 30, and 60 min time points, where the 0 min time point indicated the lime at which NADPH is added into the reaction mixture of the P450 group. […] Collected aliquots are extracted with acetonitrile solution containing an internal standard. […] The compound concentration in supernatant is measured by LC/MS/MS system.
The half-life value is obtained by plotting the natural logarithm of the peak area ratio of compounds/internal standard versus time. The slope of the line of best fit through the points yields the rate of metabolism (k). This is converted to a half-life value using following equations: Half-life=ln 2/k

Structures are written as SMILES. pIC50: −log10 of the molar value. Read-outs that look alike come from different tables or passages of the source. A value given as a limit tells only on which side of the number the result lay.

T1 sequence (P51450 with tags, fused parts or gaps): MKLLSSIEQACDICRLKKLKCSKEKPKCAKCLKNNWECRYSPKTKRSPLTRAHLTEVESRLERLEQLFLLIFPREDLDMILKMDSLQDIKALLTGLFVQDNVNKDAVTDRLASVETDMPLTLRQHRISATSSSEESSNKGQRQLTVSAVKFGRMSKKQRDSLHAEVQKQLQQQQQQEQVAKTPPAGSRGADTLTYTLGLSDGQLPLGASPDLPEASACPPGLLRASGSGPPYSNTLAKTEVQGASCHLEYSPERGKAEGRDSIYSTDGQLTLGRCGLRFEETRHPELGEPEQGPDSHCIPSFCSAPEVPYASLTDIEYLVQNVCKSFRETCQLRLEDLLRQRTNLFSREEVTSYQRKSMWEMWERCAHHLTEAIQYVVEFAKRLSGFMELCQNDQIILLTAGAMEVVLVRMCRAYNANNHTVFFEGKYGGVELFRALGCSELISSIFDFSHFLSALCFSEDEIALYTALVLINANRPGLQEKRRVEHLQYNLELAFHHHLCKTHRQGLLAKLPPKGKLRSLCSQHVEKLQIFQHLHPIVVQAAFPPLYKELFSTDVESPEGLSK

A word on the pIC50: it is the negative decadic logarithm of the IC50, by convention in mol/L. As to `COc1cc(O)c(C(CC(=O)N2CC(C)C[C@@H](C)C2)c2nc3ccccc3s2)c(OC)c1` (stereo in doubt) [Compound 205, 1-(3,5-Dimethylpiperidin-1-yl)-3-(4,6-dimethoxy-2-hydroxy-phenyl)-3-(benzothiazol-2-yl)propan-1-one], the pIC50 in data set [1] (Table 1A) is more than 6.00.
For `COc1cc(O)c(C(CC(=O)N2CCCC(C)C2)c2cccs2)c(OC)c1` (stereo not drawn) [Compound 70], in data set [1] (Table 1), the Emax came to 95% and the pIC50 was 5.00 to 6.00.
With `COc1cc(O)c(C(CC(=O)N2CC(C)CC(C)C2)c2csc3ccccc23)c(OC)c1` (stereo not drawn) [Compound 79], in data set [1] (Table 1), the Emax is -90.8% and the pIC50 was 5.00 to 6.00.
In the same order, the values of `COc1cc(O)c(C(CC(=O)N2CC(C)CC(C)C2)c2cccc(S(C)(=O)=O)c2)c(OC)c1` (stereo not drawn) [Compound 83, 1-(3,5-Dimethylpiperidin-1-yl)-3-(2-hydroxy-4,6-dimethoxyphenyl)-3-(3-(methylsulfonyl)phenyl)propan-1-one] are 93.8% and 5.00 to 6.00.
The like results for `COc1cc(O)c(C(CC(=O)N2CC(C)CC(C)C2)c2ccc(S(=O)(=O)N(C)C)cc2)c(OC)c1` (stereo not drawn) [Compound 84] were, in that order, 103% and 4.30 to 4.96.
Take `COc1cc(O)c(C(CC(=O)N2CC(C)CC(C)C2)c2ccc(C(=O)NC3CC3)cc2)c(OC)c1` (stereo not drawn) [Compound 95]: in data set [1] (Table 1), the pIC50 is 5.00 to 6.00.
Consider `COc1cc(O)c(C(CC(=O)N2CC(C)CC(C)C2)c2ccc(C(C)=O)cc2)c(OC)c1` (stereo not drawn) [Compound 100, 3-(4-Acetylphenyl)-1-(3,5-dimethylpiperidin-1-yl)-3-(2-hydroxy-4,6-dimethoxyphenyl)propan-1-one], for which, in data set [1] (Table 1), the Emax stood at 93.6% and the pIC50 is more than 6.00.
In the same order, the values of `COc1cc(O)c(C(CC(=O)N2CC(C)CC(C)C2)c2cccnc2)c(OC)c1` (stereo not drawn) [Compound 106, 1-(3,5-Dimethylpiperidin-1-yl)-3-(2-hydroxy-4,6-dimethoxyphenyl)-3-(pyridin-3-yl)propan-1-one] are 96.9% and 5.00 to 6.00.
Consider `COc1cc(O)c(C(CC(=O)N2CC(C)CC(C)C2)c2cccs2)c(OC)c1` (stereo not drawn) [Compound 107, 1-(3,5-Dimethylpiperidin-1-yl)-3-(2-hydroxy-4,6-dimethoxyphenyl)-3-(thiophen-2-yl)propan-1-one], for which, in data set [1] (Table 1), the Emax was found to be 94.9% and the pIC50 is 5.00 to 6.00.
The like results for `COc1cc(O)c(C(CC(=O)N2CC(C)CC(C)C2)c2ccncc2)c(OC)c1` (stereo not drawn) [Compound 108, 1-(3,5-Dimethylpiperidin-1-yl)-3-(2-hydroxy-4,6-dimethoxyphenyl)-3-(pyridin-4-yl)propan-1-one] were, in that order, 119% and 4.30 to 4.96.
The like results for `COc1cc(O)c(C(CC(=O)N2CC(C)CC(C)C2)c2ccc(C(N)=O)cc2)c(OC)c1` (stereo not drawn) [Compound 111] were, in that order, 96.7% and 5.00 to 6.00.
In the same order, the values of `COc1c(C(CC(=O)N2CC(C)CC(C)C2)c2ccc3c(c2)OCO3)c(O)cc2occc12` (stereo not drawn) [Compound 139] are 94.5% and 5.00 to 6.00.
Usually half-life stands for the time in which the quantity being followed falls by half. A high value points to slow decline. In the case of `CC1CC(C)CN(C(=O)CC(c2ccc(-n3cncn3)cc2)c2ccc3c(c2)OCO3)C1` (stereo not drawn) [Compound 141, 3-(4-(1H-1,2,4-Triazol-1-yl)phenyl)-3-(benzo[d][1,3]dioxol-5-yl)-1-(3,5-dimethylpiperidin-1-yl)propan-1-one], in data set [2], the “% Remaining @ 60 min” value is recorded as 9.02%, the half-life at 1 μM was 12.9 min and the microsomal CLint at 1 μM turned out to be 108 µL/min/mg. Also, in data set [2] (HLM, Table 3 data), the “stability compared with compounds 150 and 157” value is “better or improved stability over the compounds with IDs 150 and 157”.
As to `CC1CC(C)CN(C(=O)CC(c2ccc3c(c2)OCO3)c2c(O)ccc3cccnc23)C1` (stereo not drawn) [Compound 146], the pIC50 in data set [1] (Table 1) is 5.00 to 6.00.
With `COc1cc(OC)c(C(c2ccccc2)C(C)(C)C(=O)N2CC(C)OC(C)C2)c(OC)c1` (stereo not drawn) [Compound 150, reference compound], in data set [2], the “% Remaining @ 60 min” value was determined as 6.79%, the half-life at 1 μM stood at 8 min and the microsomal CLint at 1 μM came to 173 µL/min/mg.
In the same order, the values of `COc1ccc2ccccc2c1C(c1ccc(F)cc1)C(C)(C)C(=O)N1CC(C)CC(C)C1` (stereo not drawn) [Compound 157, reference compound] are 6.78%, 6.9 min and 201 µL/min/mg.
Consider `COc1cc(OC)c(C(CC(=O)N2C[C@H](C)C[C@H](C)C2)c2ccc(C(=O)O)cc2)c(OC)c1` (stereo partly drawn) [Compound 201, 4-(3-(3,5-cis-Dimethylpiperidin-1-yl)-3-oxo-1-(2,4,6-trimethoxyphenyl)-propyl)benzoic acid], for which, in data set [1] (Table 1), the Emax was 87% and the pIC50 is more than 6.00.
Consider `COc1cc(O)c(C(CC(=O)N2C[C@H](C)C[C@H](C)C2)c2ccc(C(=O)O)cc2)c(OC)c1` (stereo partly drawn) [Compound 202, 4-(3-(3,5-cis-Dimethylpiperidin-1-yl)-1-(2-hydroxy-4,6-dimethoxyphenyl)-3-oxopropyl)benzoic acid], for which the pIC50 in data set [1] (Table 1A) was more than 6.00.
The same measure, in the same setting: in the case of `COc1cc(O)c(C(CC(=O)N2C[C@H](C)C[C@H](C)C2)c2c[nH]c(C)n2)c(OC)c1` (stereo partly drawn) [Compound 203] it was 5.00 to 6.00; in that of `COc1cc(O)c(C(CC(=O)N2C[C@H](C)C[C@H](C)C2)c2cnccn2)c(OC)c1` (stereo partly drawn) [Compound 204, 1-(3,5-Dimethylpiperidin-1-yl)-3-(4,6-dimethoxy-2-hydroxy-phenyl)-3-(pyrazin-2-yl)propan-1-one], 5.00 to 6.00; in that of `COc1cc(O)c(C(CC(=O)N2C[C@H](C)C[C@H](C)C2)c2ccc(OC)nc2)c(OC)c1` (stereo partly drawn) [Compound 206, 1-(3,5-Dimethylpiperidin-1-yl)-3-(4,6-dimethoxy-2-hydroxy-phenyl)-3-(2-methoxypyrid-5-yl)propan-1-one], more than 6.00.
